Test results published in patent US10014546B2 (priority 2012, dated 2018).
Where two headings read alike, the source gives them in different places.

What was measured:
[1] = assay type: physicochemical

In the case of `Oc1cccc2c1[O][Ti-2]13([O]2)([O]c2cccc(O)c2[O]1)[O]c1cccc(O)c1[O]3.[K+].[Na+]` [Ti(pyrogallate)^2−/3−, Sodium potassium titanium(IV) trispyrogallate], the “E1/2, V vs. RHE” value ([1]; pH 9.8) was −0.55 V vs. RHE.
In the case of “Sodium titanium(IV) triscitrate [Ti(citrate)3^2−/3−]”, the “E1/2, V vs. RHE” value ([1]; pH 5) was −0.04 V vs. RHE.
In the case of iron tris-malate [Fe^III/II(malate)3], the “E1/2, V vs. RHE” value ([1]; pH 9.2) was −0.30 V vs. RHE.
For “titanium bis-lactate [Ti^IV/III(lactate)2]”, the “E1/2, V vs. RHE” value ([1]; pH 2) was −0.03 V vs. RHE, the “E1/2, V vs. RHE” value ([1]; pH 3.6) was −0.40 V vs. RHE and the “E1/2, V vs. RHE” value ([1]; pH 9) was −0.40 V vs. RHE.
For “iron tris-(α-hydroxyacetate) [Fe^III/II(α-hydroxyacetate)3]”, the “E1/2, V vs. RHE” value ([1]; pH 8.1) was −0.50 V vs. RHE.
In the case of `O.O.O.O.O.O.[Fe+3]` [Fe^III/II(H2O)6, reference compound], the “E1/2, V vs. RHE” value ([1]; pH 0) was “+0.77 V vs. RHE”.
For “titanium mono-lactate [Ti^IV/III(lactate)1]”, the “E1/2, V vs. RHE” value ([1]; pH 3.6) was −0.34 V vs. RHE, the “E1/2, V vs. RHE” value ([1]; pH 5.6) was −0.40 V vs. RHE and the “E1/2, V vs. RHE” value ([1]; pH 9) was −0.54 V vs. RHE.
In the case of `CC(O)C(=O)[O-].CC(O)C(=O)[O-].O=C([O-])c1ccccc1O.[Ti+3]` [Ti^IV/III(lactate)2(salicylate), titanium bis-lactate mono-salicylate], the solubility (physchem) was no less than 1500 mM.
